According to patent US20190060340A1, “NOVEL AMINOGLYCOSIDES AND USES THEREOF IN THE TREATMENT OF GENETIC DISORDERS” (Technion Research & Development Foundation Limited, priority 2007, published 2019):
Values after ≈ are worked out from the molar mass of the structure shown. Values joined by “and” are separate entries in the source; they are usually repeats but may differ in a detail not shown here. Equal entries are not always repeated.

Columns and labels:
[1] = test system: Bacillus Subtilis ATCC 6633; test: Antibacterial activity, MIC by double-microdilution method; assay type: cell-based; details: ATCC 6633; for MIC: Bacillus subtilis, ATCC6633, read-out: MIC B. Subtilis
Description: (§1) In order to compare the observed aminoglycoside-induced stop codon read-through activity in mammalian cells to antibacterial activity thereof, Compounds 1-9 were further investigated as antibacterial agents against both Gram-negative (E. coli) and Gram-positive (Bacillus subtilis) bacteria, and the minimal inhibitory concentration (MIC) values were determined by using a microdilution assay with paromomycin and gentamicin as controls, and the results are presented in Table 18 hereinabove.
(§2) The bacterial strains used were Escherichia coli ATCC 25922, and Bacillus Subtilis ATCC 6633. […] All the experiments were performed in triplicates and analogous results were obtained in two to four different experiments.

[2] = test system: Escherichia coli ATCC 25922; test: as above; assay type: cell-based; details: ATCC 25922; for MIC: Escherichia coli, ATCC25922, read-out: MIC E. coli
Description: as §1, §2

[3] = test system: R245X nonsense mutation (a premature UGA A stop codon) of the PCDH15 gene; test: In vitro suppression, pDB reporter plasmid in reticulocyte lysate; assay type: biochemical, human; details: for Concentration (μM) at which maximal suppression was observed, R245X / suppression level (%), maximum in vitro, R245X: Table 20; for suppression level (%), maximum in vitro, R245X: at concentration of maximal suppression; for difference in suppression of R3X versus R245X: maximal suppression levels
Description: Compound 37 was tested for its ability to suppress a nonsense mutation in-vitro, using a reporter construct carrying either R3X nonsense mutation (a premature UGA C stop codon) or R245X nonsense mutation (a premature UGA A stop codon) of the PCDH15 gene, using gentamicin, paromomycin and Compound 3 as standards and following the experimental procedures presented hereinabove.
For the rat-PGM-β-Gal in vitro readthrough system, the pDB series of reporter plasmids harbor the following elements under SP6 promoter control: an open reading frame (ORF) derived from the 5′ end of the rat PGM gene, which encodes a 25-kDa polypeptide; another small ORF, encoding the 10-kDa alpha complementation region of β-galactosidase, and terminated by tandem, in-frame stop codons (UAA UAG); located between the two ORFs is a DNA fragment derived from PCDH15 cDNA, including the tested stop mutation or the corresponding wild-type codon, and six upstream and downstream flanking codons (except for p.R3X constructs, in which there are only two upstream PCDH15-flanking codons). The fragments were created by annealing the following couples of complementary oligonucleotides:
The fragments were inserted into the BamHI and HindIII restriction sites of the pDB read-through construct. Reporter plasmids harboring each of the four nonsense mutations and the corresponding wt alleles were in vitro transcribed and translated using the TNT SP6 Coupled Reticulocyte lysate System (Promega) in the presence of [^35S]-methionine and increasing concentrations of aminoglycosides as described previously. […] The degree of suppression was calculated as the relative proportion of the 35-kDa product out of total reaction products (35-kDa and 25-kDa polypeptides). The results are averages of at least three independent experiments.

[4] = test system: original p2Luc plasmid containing a TGA C nonsense mutation; test: Dual luciferase in vitro transcription/translation assay; assay type: biochemical; details: for Conc. (μM) at which maximum suppression level was achieved: dual luciferase in vitro system, all constructs of Table 21; for Maximum in vitro suppression (%) UGAC: p2luc
From the text: (§3) DNA fragments derived from the subsequent genes, including the tested stop mutation or the corresponding wild-type codon, and four upstream and downstream flanking codons (except for p.R3X constructs, in which there are only two upstream PCDH15-flanking codons) were cloned into p2Luc plasmid between renilla and firefly luciferase genes as described previously. The formed plasmids, as well as the original p2Luc plasmid containing a TGA C nonsense mutation, were transcribed and translated in vitro and the stop codon suppression efficiency was calculated as described previously.
(§4) For the dual luciferase in vitro transcription/translation assay, DNA fragments derived from PCDH15, CFTR, Dystrophin and IDUA cDNAs, including the tested stop mutation or the corresponding wild-type codon, and four upstream and downstream flanking codons (except for p.R3X constructs, in which there are only two upstream PCDH15-flanking codons) were created by annealing the couples of complementary oligonucleotides presented above.
(§5) Fragments were inserted into the SalI and SacI restriction sites of the p2Luc plasmid between renilla and firefly luciferase genes. The afforded plasmids, as well as the original p2Luc plasmid containing a TGA C nonsense mutation, were transcribed and translated using the TNT Reticulocyte Lysate Quick Coupled Transcription/Translation System (Promega™). Each transcription/translation reaction (10 μl, total volume) contained 8 μl TNT T7 Quick Master Mix, 0.2 μl methionine (1 mM), 0.8 μl DNA template (2 μg/μl), 1 μl of either water (blank) or 1 μl solution of increasing concentrations of the tested aminoglycosides in water. Luciferase activity was determined following 90 minutes incubation at 30° C. using the Dual Luciferase Reporter Assay System (Promega™). The total luminescence produced by each one of the proteins was measured separately using the FLx800 multidetection plate reader (Bio-Tek) and the stop codon suppression efficiency was calculated as described previously. The results are averages of at least three independent experiments.

[5] = test system: G542X (CFTR, Cystic Fibrosis); test: as above; assay type: biochemical, human
From the text: as §3, §4, §5

[6] = test system: Q70X (IDUA, Hurler Syndrome); test: as above; assay type: biochemical, human
From the text: as §3, §4, §5

[7] = test system: R245X (PCDH15, Usher Syndrome); test: as above; assay type: biochemical, human
From the text: as §3, §4, §5

[8] = test system: R3381X (Dystrophin, Duchenne Muscular Dystrophy); test: as above; assay type: biochemical, human
From the text: as §3, §4, §5

[9] = test system: R3X (PCDH15, Usher Syndrome); test: as above; assay type: biochemical, human
From the text: as §3, §4, §5

[10] = test system: W1282X (CFTR, Cystic Fibrosis); test: as above; assay type: biochemical, human
From the text: as §3, §4, §5

[11] = test system: W402X (IDUA, Hurler Syndrome); test: as above; assay type: biochemical, human
From the text: as §3, §4, §5

[12] = test system: Escherichia coli (R477-100); test: Antibacterial activity, MIC; assay type: cell-based; details: for MIC: Escherichia coli, read-out: minimal inhibitory concentration (MIC)
eukaryotic translation = test: Inhibition of eukaryotic translation; assay type: biochemical

| Molecule | Concentration (μM) at which maximal suppression was observed, R245X [3] [µM] | suppression level (%), maximum in vitro, R245X [3] | difference in suppression of R3X versus R245X [3] [fold] | Conc. (μM) at which maximum suppression level was achieved [4] [µM] | Maximum in vitro suppression (%) UGAC [4] [%] | Maximum in vitro suppression (%) G542X [5] [%] | Maximum in vitro suppression (%) Q70X [6] [%] | Maximum in vitro suppression (%) R245X [7] [%] | Maximum in vitro suppression (%) R3381X [8] [%] | Maximum in vitro suppression (%) R3X [9] [%] | Maximum in vitro suppression (%) W1282X [10] [%] | Maximum in vitro suppression (%) W402X [11] [%] | IC50 (eukaryotic translation) [µM] | MIC [12] [µM] | fold more efficient inhibition of eukaryotic translation than gentamicin and paromomycin (eukaryotic translation) | MIC [1] [µg/mL] | MIC [2] [µg/mL] | also measured |
| --- | --- | --- | --- | --- | --- | --- | --- | --- | --- | --- | --- | --- | --- | --- | --- | --- | --- | --- |
| gentamicin [reference compound] | 61 | 11 ± 1.5% | 4.5 | 46 | 17.7 ± 2.9 | 2.8 ± 0.7 | 1.5 ± 0.4 | 0.90 ± 0.28 | 3.5 ± 0.7 | 14.0 ± 1.0 | 1.4 ± 0.5 | 7.2 ± 0.5 | 60 | – | – | – | – | MIC B. Subtilis [1]: <0.5 µg/mL; MIC E. coli [2]: 4 µg/mL; minimal inhibitory concentration (MIC) ([12]; Escherichia coli (R477-100)): 6 µM |
| NCC[C@H](O)C(=O)N[C@@H]1CC(N)[C@@H](O[C@H]2OC(CO)[C@@H](O)C(O)C2N)C(O[C@@H]2O[C@H](CN)C(O)C2O)C1O (stereo partly shown) [Compound 37] | 153 | 40.5% and 40.5 ± 7.5% | 1.8 | 46 | 18.4 ± 1.6 | 5.1 ± 0.6 | 10.6 ± 1.1 | 4.9 ± 0.5 | 7.8 ± 0.8 | 29.2 ± 3.1 | 3.3 ± 0.4 | 21.9 ± 4.4 | 24 | 384 (≈ 213 µg/mL) | about 3 fold | – | – | fold better suppression of R245X than Compound 3 ([3]; maximal suppression level): 6.5 fold; fold better suppression of R245X than gentamicin ([3]; maximal suppression level): 3.6 fold; fold better suppression of R245X than paromomycin ([3]; maximal suppression level): 4.5 fold |
| NC[C@@H]1O[C@H](O[C@H]2[C@@H](O)[C@H](O[C@@H]3[C@@H](O)[C@H](N)C[C@H](N)[C@H]3O[C@H]3O[C@H](CO)[C@@H](O)[C@H](O)[C@H]3N)O[C@@H]2CO)[C@H](N)[C@@H](O)[C@@H]1O [paromomycin, reference compound] | 42 | 9 ± 3% | 5.4 | 42 | 7.8 ± 2.2 | 0.74 ± 0.08 | 2.2 ± 0.5 | 0.71 ± 0.32 | 2.4 ± 0.3 | 9.4 ± 0.5 | 1.2 ± 0.2 | 3.3 ± 0.1 | 58 | 22 (≈ 13.5 µg/mL) | – | 8 (≈ 13 µM) | 12 (≈ 19.5 µM) | – |
| NC[C@H]1O[C@@H](O[C@@H]2[C@@H](O)[C@H](N)C[C@H](N)[C@H]2O[C@H]2O[C@H](CO)[C@@H](O)[C@H](O)[C@H]2N)[C@H](O)[C@@H]1O [Compound 3] | 178 | 6.0 ± 0.3% | 3.5 | 107 | 4.8 ± 0.8 | 0.63 ± 0.29 | 2.0 ± 0.4 | 0.98 ± 0.30 | 1.8 ± 0.2 | 2.9 ± 0.9 | 1.6 ± 0.4 | 3.2 ± 0.4 | 31 | 790 (≈ 359 µg/mL) | about 2 fold | 48 (≈ 106 µM) | > 512 | – |
